Results from patent US10253004B2, “Indanylaminopyrazinylcyclopropanecarboxylic acids, pharmaceutical compositions and uses thereof” (Boehringer Ingelheim International GmbH, priority 2017, dated 2019).

Legend:
human GPR40 receptor = human GPR40 receptor (Homo sapiens (Human), UniProt O14842); test: IP1 accumulation measurements using the IPOne assay system; assay type: cell-based; conditions: 1321N1 cells stably expressing human GPR40; IP1 accumulation; read-out: EC50
Experimental: IP1 accumulation measurements using the IPOne assay system—1321N1 cells stably expressing human GPR40 receptor (Euroscreen, Belgium) are seeded 24 h before the assay in white 384-well plates in culture medium containing 10% FCS, 1% Na-Pyruvate and 400 μg/mL G418. IP1 is assayed according to the manufacturer's description (Cisbio Bioassays, France). In brief, the assay is started by substitution of the culture medium by stimulation buffer (Hepes 10 mM, CaCl2 1 mM, MgCl2 0.5 mM, KCl 4.2 mM, NaCl 146 mM, glucose 5.5 mM and LiCl 50 mM, pH 7.4). Cells are stimulated for 1 h at 37° C., 5% CO2 by addition of the compounds that are diluted in stimulation buffer containing LiCl. Assays are stopped by adding HTRF-conjugates (IP1-d2 and Anti-IP1 cryptate Tb) and lysis buffer, provided by the manufacturer. After an incubation time of 1 h at room temperature plates are measured using an EnVision™, Perkin Elmer. The obtained fluorescence ratios at 665/615 […] are then used to calculate the pEC50 values using Assay Explorer 3.3 Software (Accelrys, Inc.) by interpolation using an IP1 reference curve and subsequent sigmoidal curve fitting allowing for a variable hill slope.

[1] = Chemical stability (degradation kinetics) in acidic aqueous media, HPLC recovery; assay type: physicochemical; conditions: pH ca. 1.2, 37° C., acetonitrile/0.1 M aqueous HCl (2:3)
Experimental: Degradation kinetics is used to simulate chemical stability of compounds in the acidic part of the gastro intestinal tract. […] Their application as medical drugs to treat human diseases is therefore less restricted and troublesome.
The chemical stability of the compounds of the invention at pH value of ca. 1.2 is determined as follows:
Compound is dissolved in an HPLC vial either in a mixture of acetonitrile/0.1 M aqueous HCl (2:3; pH ca. 1.2) or in a mixture of acetonitrile/Mcllvaine buffer pH 7.4 (2:3) to get a concentration of approximately 0.25 mg/ml. The vial was then transferred into an HPLC autosampler system and maintained at a temperature of 37° C. A first sample is taken and injected immediately into a standard HPLC system with a UV DAD detector. Further samples are injected after 2, 4, 6, 8 and 10 hours. Amount of degraded compound is measured by determining the recovery rate of compound [%] for each injection using an HPLC standard gradient method. Therefore the peak area of the main peak for the first injection (AUt0) is determined and set as 100%. Peak area of the main peak is determined also for the further injections (AUtn, n=2, 4, 6, 8, 10) and expressed as fraction of […] [%].

Sequence of human GPR40 receptor (O14842 whole entry): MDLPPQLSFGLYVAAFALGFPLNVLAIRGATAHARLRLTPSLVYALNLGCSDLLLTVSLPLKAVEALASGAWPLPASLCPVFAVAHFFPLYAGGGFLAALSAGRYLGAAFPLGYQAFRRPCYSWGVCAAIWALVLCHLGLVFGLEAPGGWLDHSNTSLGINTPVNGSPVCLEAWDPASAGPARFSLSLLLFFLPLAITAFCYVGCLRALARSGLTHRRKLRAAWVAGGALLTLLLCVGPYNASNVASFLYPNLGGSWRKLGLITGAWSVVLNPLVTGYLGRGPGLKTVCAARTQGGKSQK

Structure (SMILES)	EC50 (human GPR40 receptor) [nM]	Amount of degradation after 2 h [1] [%]
Cc1cc(OCCC(C)(C)O)cc(C)c1-c1ccc(F)c2c1CC[C@H]2Nc1cnc(C2C[C@@H]2C(=O)O)cn1 (stereo partly drawn) [Example 1, trans-2-(5-{(R)-7-Fluoro-4-[4-(3-hydroxy-3-methyl-butoxy)-2,6-dimethyl-phenyl]-indan-1-ylamino}-pyrazin-2-yl)-cyclopropanecarboxylic acid]	7	–
Cc1cc(OCCC(C)(C)O)cc(C)c1-c1ccc(F)c2c1CC[C@H]2Nc1cnc([C@@H]2C[C@H]2C(=O)O)cn1 [Example 3, (1R,2R)-2-(5-{(R)-7-Fluoro-4-[4-(3-hydroxy-3-methyl-butoxy)-2,6-dimethyl-phenyl]-indan-1-ylamino}-pyrazin-2-yl)-cyclopropanecarboxylic acid]	164	–
Cc1cc(OCCCS(C)(=O)=O)cc(C)c1-c1ccc(F)c2c1CC[C@H]2Nc1cnc([C@@H]2C[C@H]2C(=O)O)cn1 [Example 5, (1R,2R)-2-(5-{(R)-7-Fluoro-4-[4-(3-methanesulfonyl-propoxy)-2,6-dimethyl-phenyl]-indan-1-ylamino}-pyrazin-2-yl)-cyclopropanecarboxylic acid]	519	–
Cc1cc(-c2nnn(C)n2)cc(C)c1-c1cccc2c1CC[C@H]2Nc1cnc([C@H]2C[C@@H]2C(=O)O)cn1 [Example 6, (1S,2S)-2-(5-{(R)-4-[2,6-Dimethyl-4-(2-methyl-2H-tetrazol-5-yl)-phenyl]-indan-1-ylamino}-pyrazin-2-yl)-cyclopropanecarboxylic acid]	3	–
COc1ccc(-c2cccc3c2CC[C@H]3Nc2cnc([C@H]3C[C@@H]3C(=O)O)cn2)cc1F [Example 8, (1S,2S)-2-{5-[(R)-4-(3-Fluoro-4-methoxy-phenyl)-indan-1-ylamino]-pyrazin-2-yl}-cyclopropanecarboxylic acid]	163	–
COc1cnc(-c2ccc(-c3cccc4c3CC[C@H]4Nc3cnc([C@H]4C[C@@H]4C(=O)O)cn3)cc2)cn1 [Example 9, (1S,2S)-2-(5-{(R)-4-[4-(5-Methoxy-pyrazin-2-yl)-phenyl]-indan-1-ylamino}-pyrazin-2-yl)-cyclopropanecarboxylic acid]	35	–
Cc1cc(C(N)=O)cc(C)c1-c1ccc(F)c2c1CC[C@H]2Nc1cnc([C@H]2C[C@@H]2C(=O)O)cn1 [Example 10]	24	–
Cc1cc(-c2cc(=O)n(C)cn2)cc(C)c1-c1ccc(F)c2c1CC[C@H]2Nc1cnc([C@H]2C[C@@H]2C(=O)O)cn1 [Example 11]	6	–
Cc1cc(OCC2(O)CCS(=O)(=O)CC2)cc(C)c1-c1ccc(F)c2c1CC[C@H]2Nc1cnc([C@H]2C[C@@H]2C(=O)O)cn1 [Example 12]	14	–
Cc1cc(OCC2CCOCC2)cc(C)c1-c1ccc(F)c2c1CC[C@H]2Nc1cnc([C@H]2C[C@@H]2C(=O)O)cn1 [Example 13]	4	–
Cc1cc(C(=O)O)cc(C)c1-c1ccc(F)c2c1CC[C@H]2Nc1cnc([C@H]2C[C@@H]2C(=O)O)cn1 [Example 14]	355	–
Cc1cc(C(=O)NCC(C)(C)O)cc(C)c1-c1ccc(F)c2c1CC[C@H]2Oc1ccc([C@H]2C[C@@H]2C(=O)O)cc1 [Example 15 in WO 2013/178575, reference compound]	–	3
Cc1cccc(C)c1-c1ccc(F)c2c1CC[C@H]2Nc1cnc([C@H]2C[C@@H]2C(=O)O)cn1 [Example 15]	7	–
O=C(O)[C@H]1C[C@@H]1c1cnc(N[C@@H]2CCc3c(-c4c(F)cccc4F)ccc(F)c32)cn1 [Example 16]	77	–
O=C(O)[C@H]1C[C@@H]1c1cnc(N[C@@H]2CCc3c(-c4ccccc4C(F)(F)F)ccc(F)c32)cn1 [Example 17]	23	–
Nc1cc(F)c(-c2ccc(F)c3c2CC[C@H]3Nc2cnc([C@H]3C[C@@H]3C(=O)O)cn2)c(F)c1 [Example 18]	150	–
O=C(O)[C@H]1C[C@@H]1c1cnc(N[C@@H]2CCc3c(-c4c(F)cc(OC5CC5)cc4F)ccc(F)c32)cn1 [Example 19]	56	–
Cc1cc(C(=O)N(C)C)cc(C)c1-c1ccc(F)c2c1CC[C@H]2Nc1cnc([C@H]2C[C@@H]2C(=O)O)cn1 [Example 20]	75	–
Cc1ccc(Cl)c(-c2ccc(F)c3c2CC[C@H]3Nc2cnc([C@H]3C[C@@H]3C(=O)O)cn2)c1Cl [Example 21]	4	–
COc1cc(C)c(-c2ccc(F)c3c2CC[C@H]3Nc2cnc([C@H]3C[C@@H]3C(=O)O)cn2)c(C)c1 [Example 22]	8	–
O=C(O)[C@H]1C[C@@H]1c1cnc(N[C@@H]2CCc3c(-c4ccc(-c5cnco5)cc4)ccc(F)c32)cn1 [Example 23]	144	–
COc1cc(OC)c(-c2ccc(F)c3c2CC[C@H]3Nc2cnc([C@H]3C[C@@H]3C(=O)O)cn2)c(OC)c1 [Example 24]	128	–
O=C(O)[C@H]1C[C@@H]1c1cnc(N[C@@H]2CCc3c(-c4c(Cl)cccc4Cl)ccc(F)c32)cn1 [Example 25]	7	–

Structure (SMILES)	EC50 (human GPR40 receptor) [nM]	Amount of degradation after 2 h [1] [%]
N#CC1(c2ccccc2-c2ccc(F)c3c2CC[C@H]3Nc2cnc([C@H]3C[C@@H]3C(=O)O)cn2)CC1 [Example 26]	367	–
Cc1cc(O[C@@H]2CCOC2)cc(C)c1-c1ccc(F)c2c1CC[C@H]2Nc1cnc([C@H]2C[C@@H]2C(=O)O)cn1 [Example 27]	13	–
COc1cc(OC)c(Cl)c(-c2ccc(F)c3c2CC[C@H]3Nc2cnc([C@H]3C[C@@H]3C(=O)O)cn2)c1Cl [Example 29]	5	–
Cc1cc(CO)cc(C)c1-c1ccc(F)c2c1CC[C@H]2Nc1cnc([C@H]2C[C@@H]2C(=O)O)cn1 [Example 30]	20	–
Cc1cc(OC2CCOCC2)cc(C)c1-c1ccc(F)c2c1CC[C@H]2Nc1cnc([C@H]2C[C@@H]2C(=O)O)cn1 [Example 31]	9	–
Cc1cc(OCC2(C)COC2)cc(C)c1-c1ccc(F)c2c1CC[C@H]2Nc1cnc([C@H]2C[C@@H]2C(=O)O)cn1 [Example 32]	7	–
Cc1cc(-c2ccc(=O)n(C)c2)cc(C)c1-c1ccc(F)c2c1CC[C@H]2Nc1cnc([C@H]2C[C@@H]2C(=O)O)cn1 [Example 33]	6	–
Cc1cc(-c2ccnn2C)cc(C)c1-c1ccc(F)c2c1CC[C@H]2Nc1cnc([C@H]2C[C@@H]2C(=O)O)cn1 [Example 36]	12	–
COc1cc(OC)c(F)c(-c2ccc(F)c3c2CC[C@H]3Nc2cnc([C@H]3C[C@@H]3C(=O)O)cn2)c1F [Example 37]	81	–
Cc1cnc(-c2cc(C)c(-c3ccc(F)c4c3CC[C@H]4Nc3cnc([C@H]4C[C@@H]4C(=O)O)cn3)c(C)c2)nc1 [Example 38]	4	–
Cc1cc(-c2nnnn2CC(C)(C)O)cc(C)c1-c1ccc(F)c2c1CC[C@H]2Nc1cnc([C@H]2C[C@@H]2C(=O)O)cn1 [Example 39]	3	–
CC(C)c1ccccc1-c1ccc(F)c2c1CC[C@H]2Nc1cnc([C@H]2C[C@@H]2C(=O)O)cn1 [Example 40]	16	–
Cc1cc(OCC2(O)CCOCC2)cc(C)c1-c1ccc(F)c2c1CC[C@H]2Nc1cnc([C@H]2C[C@@H]2C(=O)O)cn1 [Example 41]	11	–
COc1cc(-c2cc(C)c(-c3ccc(F)c4c3CC[C@H]4Nc3cnc([C@H]4C[C@@H]4C(=O)O)cn3)c(C)c2)ccn1 [Example 42]	5	–
Cc1cc(OCC2CCOC2)cc(C)c1-c1ccc(F)c2c1CC[C@H]2Nc1cnc([C@H]2C[C@@H]2C(=O)O)cn1 (stereo partly shown) [Example 43]	18	–
COc1cc(F)c(-c2ccc(F)c3c2CC[C@H]3Nc2cnc([C@H]3C[C@@H]3C(=O)O)cn2)c(F)c1 [Example 44]	90	–
CNC(=O)c1cc(C)c(-c2ccc(F)c3c2CC[C@H]3Nc2cnc([C@H]3C[C@@H]3C(=O)O)cn2)c(C)c1 [Example 45]	23	–
Cc1cc(OCC(=O)O)cc(C)c1-c1ccc(F)c2c1CC[C@H]2Nc1cnc([C@H]2C[C@@H]2C(=O)O)cn1 [Example 48]	839	–
CCc1cccc(CC)c1-c1ccc(F)c2c1CC[C@H]2Nc1cnc([C@H]2C[C@@H]2C(=O)O)cn1 [Example 49]	4	–
O=C(O)[C@H]1C[C@@H]1c1cnc(N[C@@H]2CCc3c(-c4c(F)cc(F)cc4F)ccc(F)c32)cn1 [Example 50]	74	–
Cc1cc(C#N)cc(C)c1-c1ccc(F)c2c1CC[C@H]2Nc1cnc([C@H]2C[C@@H]2C(=O)O)cn1 [Example 51]	9	–
Cc1cc(OCC2(O)CCSCC2)cc(C)c1-c1ccc(F)c2c1CC[C@H]2Nc1cnc([C@H]2C[C@@H]2C(=O)O)cn1 [Example 52]	10	–
Cc1cc(-c2cnccn2)cc(C)c1-c1ccc(F)c2c1CC[C@H]2Nc1cnc([C@H]2C[C@@H]2C(=O)O)cn1 [Example 54]	4	–
